For 18 compounds, adulticidal rate and insecticidal rate results are on record in US9012493B2, “1-heterodiene derivative and pest control agent” (Nippon Soda Co., Ltd., priority 2009, dated 2015).

In one experiment the test system is Twospotted Spider Mite (Tetranychus Urticae Koch). Nature of the experiment: Efficacy test against twospotted spider mite, spray on kidney bean plant. Type of experiment: in vivo. The following applies: 125 ppm, wettable powder diluted with water, sprayed, female adults with resistance to an organophosphorus agent on kidney bean, after 3 days. As for the experimental part: The wettable powder obtained according to Formulation of Formulation Example 1 was diluted with water so as to control the concentration of the compound to 125 ppm. Seventeen female adults of twospotted spider mite with resistance to an organophosphorus agent were inoculated on a first true leaf of a kidney bean plant (approximately 7 to 10 days after sprouting) sown in a 3 sun/size pot (9 cm). The diluted solution was sprayed. The pot was placed in a temperature-controlled room at a temperature of 25° C. and a humidity of 65%. After 3 days, the adulticidal rate was examined. The test was repeated twice.
Consider `C=C1SC(=Nc2cc(OC)cc(OC)c2)C(=CSc2ccccc2)CC1(C)C` [Compound 2-38], for which the adulticidal rate is on record as 100%.

`C=C1SC(=Nc2ccccc2OC)C(=CSc2ccccc2)CC1(C)C` [Compound 2-27] had an adulticidal rate of 100%.

Turning to `C=C1SC(=Nc2ccc(C)cc2)C(=CSc2ccc(C(C)C)cc2)CC1(C)C` [Compound 2-151], the adulticidal rate was determined as 100%.

With `C=C1SC(=Nc2ccc(C)cc2)C(=CSc2ccccc2C)CC1(C)C` [Compound 2-111], the adulticidal rate came to 100%.

`C=C1SC(=Nc2ccc(C)cc2)C(=CSc2c(F)cccc2F)CC1(C)C` [Compound 2-114] showed an adulticidal rate of 100%.

In turn, `C=C1SC(=Nc2ccc(C)cc2)C(=CSc2sccc2C)CC1(C)C` [Compound 2-104] came in with an adulticidal rate of 100%.

The compound `C=C1SC(=Nc2ccc(C)cc2)C(=CSc2cccc(C(C)=O)c2)CC1(C)C` [Compound 2-105] had an adulticidal rate of 100%.

Consider `C=C1SC(=Nc2ccc(C)cc2)C(=CSc2ccc3ccccc3n2)CC1(C)C` [Compound 2-113], for which the adulticidal rate is given as 100%.

The test system of another experiment is Rice Armyworm (Mythimna Separata). Description: Efficacy test against rice armyworm, corn leaf dip. The following applies: 125 ppm, emulsifiable concentrate diluted with water, corn leaves immersed, second instar larvae, after 5 days, 25° C. Type of experiment: in vivo. As for the experimental part: (§1) Test Examples of the pest control agent thus obtained according to the present invention are shown below. In respective Test Examples, the insecticidal rate (%) was determined by the following calculation equation. Insecticidal rate (%)=(number of dead pests/number of released pests)×100
The emulsifiable concentrate obtained according to Formulation of Formulation Example 2 was diluted with water so as to control the concentration of the compound to 125 ppm. Leaves of corn were immersed in this diluted solution for 30 seconds and then air-dried. The leaves were put in a petri dish on which a filter paper is laid, and then five second instar larvae of rice armyworm were inoculated. After covering the petri dish with a glass lid, the petri dish was placed in a temperature-controlled room at a temperature of 25° C. and a humidity of 65%. After 5 days, life and death were examined and the insecticidal rate was determined. The test was repeated twice.
`C=C1SC(=Nc2ccccc2OC)C(=CSc2ccccc2)CC1(C)C` [Compound 2-27] gave an insecticidal rate of 100%.

Regarding `C=C1SC(=Nc2ccc(C)cc2)C(=CSc2ccc(C(C)C)cc2)CC1(C)C` [Compound 2-151], the insecticidal rate turned out to be 100%.

Regarding `COc1ccc(N=C2SC(=C(C)C)CCC2=CSc2ccc(F)cc2)cc1` [Compound 2-22], the insecticidal rate worked out at 100%.

In turn, `C=C1SC(=Nc2ccc(C)cc2)C(=CSc2ccccc2C)CC1(C)C` [Compound 2-111] returned an insecticidal rate of 100%.

In turn, `C=C1SC(=Nc2ccc(C)cc2)C(=CSc2c(F)cccc2F)CC1(C)C` [Compound 2-114] registered an insecticidal rate of 100%.

For the compound `C=C1SC(=Nc2ccccc2)C(=CSc2cccs2)CC1(C)C` [Compound 2-129], the insecticidal rate was determined as 100%.

With `C=C1SC(=Nc2ccc(C)cc2)C(=CSc2sccc2C)CC1(C)C` [Compound 2-104], the insecticidal rate was 100%.

`C=C1SC(=Nc2ccc(C)cc2)C(=CSc2ccccc2OC)CC1(C)C` [Compound 2-19] registered an insecticidal rate of 100%.

As for `C=C1CCC(=CSc2ccccc2)C(=Nc2ccsc2)S1` [Compound 2-52], the insecticidal rate was determined as 100%.

Turning to `C=C1SC(=Nc2ccc(C)c(C)c2)C(=CSc2nccc(C)n2)CC1(C)C` [Compound 2-132], the insecticidal rate came out at 100%.

The compound `C=C1SC(=Nc2ccc(OC)cc2)C(=CSc2ncccn2)CC1(C)C` [Compound 2-47] returned an insecticidal rate of 100%.

Compound `C=C1SC(=Nc2c(C)cc(OC)cc2C)C(=CSc2ccccc2)CC1(C)C` [Compound 2-67] had an insecticidal rate of 100%.

Compound `C=C1SC(=Nc2ccc(C)cc2)C(=CSCc2ccccc2)CC1(C)C` [Compound 2-112] displayed an insecticidal rate of 100%.

In turn, `C=C1SC(=Nc2c(F)cc(OC)cc2F)C(=CSc2ccccc2)CC1(C)C` [Compound 2-65] came in with an insecticidal rate of 100%.

Regarding `C=C1SC(=Nc2ccc(C)cc2)C(=CSc2cccc(Cl)n2)CC1(C)C` [Compound 2-91], the insecticidal rate stood at 100%.

Compound `C=C1SC(=Nc2ccc(C)cc2)C(=CSc2cccc(C(C)=O)c2)CC1(C)C` [Compound 2-105] had an insecticidal rate of 100%.

`C=C1SC(=Nc2ccc(C)cc2)C(=CSc2ccc3ccccc3n2)CC1(C)C` [Compound 2-113] showed an insecticidal rate of 100%.

Another experiment deals with Cotton Aphid (Aphis Gossypii). Nature of the experiment: Efficacy test against cotton aphid, spray on cucumber plant. Particulars: 125 ppm, emulsifiable concentrate diluted with water, sprayed over cucumber plant with nymphs, after 5 days, 25° C. Type of experiment: in vivo. On the procedure:
as §1
The emulsifiable concentrate obtained according to Formulation of Formulation Example 2 was diluted with water so as to control the concentration of the compound to 125 ppm. Adults of cotton aphids were inoculated to a cucumber plant (approximately 10 days after sprouting) sown in a 3 sun/size pot (9 cm). After 1 day, adult aphids were removed and the diluted solution was sprayed over the cucumber plant on which delivered nymphs are parasitic. The pot was placed in a temperature-controlled room at a temperature of 25° C. and a humidity of 65%. After 5 days, life and death were examined and the insecticidal rate was determined. The test was repeated twice.
Regarding `COc1ccc(N=C2SC(=C(C)C)CCC2=CSc2ccc(F)cc2)cc1` [Compound 2-22], the insecticidal rate is on record as 100%.

`C=C1SC(=Nc2ccccc2)C(=CSc2cccs2)CC1(C)C` [Compound 2-129] returned an insecticidal rate of 100%.

Regarding `C=C1SC(=Nc2ccc(C)cc2)C(=CSc2ccccc2OC)CC1(C)C` [Compound 2-19], the insecticidal rate worked out at 100%.

With `C=C1CCC(=CSc2ccccc2)C(=Nc2ccsc2)S1` [Compound 2-52], the insecticidal rate came out at 100%.

`C=C1SC(=Nc2ccc(C)c(C)c2)C(=CSc2nccc(C)n2)CC1(C)C` [Compound 2-132] had an insecticidal rate of 100%.

Regarding `C=C1SC(=Nc2ccc(OC)cc2)C(=CSc2ncccn2)CC1(C)C` [Compound 2-47], the insecticidal rate was determined as 100%.

`C=C1SC(=Nc2c(C)cc(OC)cc2C)C(=CSc2ccccc2)CC1(C)C` [Compound 2-67] showed an insecticidal rate of 100%.

As for `C=C1SC(=Nc2ccc(C)cc2)C(=CSCc2ccccc2)CC1(C)C` [Compound 2-112], the insecticidal rate was found to be 100%.

With `C=C1SC(=Nc2c(F)cc(OC)cc2F)C(=CSc2ccccc2)CC1(C)C` [Compound 2-65], the insecticidal rate worked out at 100%.

Compound `C=C1SC(=Nc2ccc(C)cc2)C(=CSc2cccc(Cl)n2)CC1(C)C` [Compound 2-91] yielded an insecticidal rate of 100%.

The test system of a further experiment is Sweetpotato Whitefly (Bemisia Tabaci). Description: Efficacy test against sweetpotato whitefly, sprayed tomato leaf. Type of experiment: in vivo. The following applies: 125 ppm, emulsifiable concentrate diluted with water, adults (type B), after 2 days, 25° C. As for the experimental part: as §1
The emulsifiable concentrate obtained according to Formulation of Formulation Example 2 was diluted with water so as to control the concentration of the compound to 125 ppm. The diluted solution was sprayed over a tomato leaf obtained by cutting and then air-dried. Using absorbent cotton, the leaf was fixed to a flask so that a front surface of the leaf faces upward. Seven pairs of adults of sweetpotato whitefly (type B) were inoculated in this container, and the container was placed in a temperature-controlled room at a temperature of 25° C. and a humidity of 65%. After 2 days, life and death were examined and the insecticidal rate was determined. The test was repeated twice.
The compound `C=C1SC(=Nc2cc(OC)cc(OC)c2)C(=CSc2ccccc2)CC1(C)C` [Compound 2-38] returned an insecticidal rate of 100%.

On to `C=C1SC(=Nc2ccccc2OC)C(=CSc2ccccc2)CC1(C)C` [Compound 2-27], for which the insecticidal rate is on record as 100%.

In the case of `C=C1SC(=Nc2ccc(C)cc2)C(=CSc2ccc(C(C)C)cc2)CC1(C)C` [Compound 2-151], the insecticidal rate was 100%.

`COc1ccc(N=C2SC(=C(C)C)CCC2=CSc2ccc(F)cc2)cc1` [Compound 2-22] displayed an insecticidal rate of 100%.

`C=C1SC(=Nc2ccc(C)cc2)C(=CSc2c(F)cccc2F)CC1(C)C` [Compound 2-114] displayed an insecticidal rate of 100%.

In the case of `C=C1SC(=Nc2ccccc2)C(=CSc2cccs2)CC1(C)C` [Compound 2-129], the insecticidal rate was 100%.

`C=C1SC(=Nc2ccc(C)cc2)C(=CSc2sccc2C)CC1(C)C` [Compound 2-104] showed an insecticidal rate of 100%.

The compound `C=C1SC(=Nc2ccc(C)cc2)C(=CSc2ccccc2OC)CC1(C)C` [Compound 2-19] yielded an insecticidal rate of 100%.

`C=C1CCC(=CSc2ccccc2)C(=Nc2ccsc2)S1` [Compound 2-52] came in with an insecticidal rate of 100%.

On to `C=C1SC(=Nc2ccc(C)c(C)c2)C(=CSc2nccc(C)n2)CC1(C)C` [Compound 2-132], for which the insecticidal rate is listed as 100%.

On to `C=C1SC(=Nc2ccc(OC)cc2)C(=CSc2ncccn2)CC1(C)C` [Compound 2-47], for which the insecticidal rate came to 100%.

Consider `C=C1SC(=Nc2c(C)cc(OC)cc2C)C(=CSc2ccccc2)CC1(C)C` [Compound 2-67], for which the insecticidal rate is 100%.

`C=C1SC(=Nc2ccc(C)cc2)C(=CSCc2ccccc2)CC1(C)C` [Compound 2-112] yielded an insecticidal rate of 100%.

With `C=C1SC(=Nc2c(F)cc(OC)cc2F)C(=CSc2ccccc2)CC1(C)C` [Compound 2-65], the insecticidal rate is 100%.

`C=C1SC(=Nc2ccc(C)cc2)C(=CSc2cccc(Cl)n2)CC1(C)C` [Compound 2-91]: the insecticidal rate is given as 100%.
